Legend:
[1] = Pharmacokinetics in SD rats after intravenous injection or gavage; conditions: rat, plasma
Procedure: (§1) The compounds of the present invention were administered to test animals in the form of 5% DMSO + 30% PEG400 + 65% physiological saline, 10% DMSO + 10% Kolliphor HS15 + 80% Saline, 10% DMSO + 89% (25% SBE-B-CD) + (2% HCl), 20% PEG400 + 80% sterile water for injection, or 10% DMA+ 10% HS15 + 30% PEG400 + 50% sterile aqueous solution for injection. Animals were fasted for 12 hours before administration but had free access to water. For the intravenous administration group, the dose was 1 mg/kg. Blood samples (approximately 0.15 mL) were collected intravenously at the following time points after administration: 0.083, 0.25, 0.5, 1.0, 2.0, 4.0, 6.0, 8.0 and 24 h (dogs) or 0.083, 0.25, 0.5, 1.0, 2.0, 5.0, 7.0 and 24 h (mice and rats) or 0.083, 0.25, 0.5, 1.0, 2.0, 6.0, 8.0 and 24 h (monkeys). EDTA-K2 was pre-added to the blood collection tube as an anticoagulant. The blood samples were centrifuged at 12,000 rpm for 2 minutes, and plasma was collected and stored at -20 °C or - 70 °C. For the gavage administration group, the dosage was 1 mg/kg (mice, dogs, and monkeys) or 5 mg/kg (rats). After administration, venous blood samples (approximately 0.15 mL) were collected at the following time points: 0.25, 0.5, 1.0, 2.0, 4.0, 6.0, 8.0, and 24 h (dogs) or 0.25, 0.5, 1.0, 2.0, 5.0, 7.0, and 24 h (mice and rats) or 0.25, 0.5, 1.0, 2.0, 6.0, 8.0, and 24 h (monkeys). EDTA-K2 was pre-added to the blood collection tube as an anticoagulant. The blood samples were centrifuged at 12,000 rpm for 2 minutes, and plasma was collected and stored at -20 °C or -70 °C.
(§2) The collected plasma samples were processed (frozen plasma was thawed at room temperature, vortexed for 15 s to mix, 10-20 µL of plasma was taken, 120-150 µL of acetonitrile solution containing internal standard was added, vortexed for 5 min to mix, centrifuged at 4,000 rpm for 5 min, 100 µL of supernatant was taken, and 120-150 Ml/water (v/v = 1/1) was added and mixed). The concentration of compounds in the plasma was then analyzed by LC-MS/MS.
Table D Pharmacokinetic parameters of compounds of the present invention in SD rats

[2] = Pharmacokinetics in mice after intravenous injection or gavage; conditions: BALB/c, mouse, plasma
Procedure: as §1, §2

PARP1 = PARP1 (Homo sapiens, UniProt P09874); test: Inhibition of PARP1 enzyme activity (ELISA, chemiluminescence); format: biochemical; conditions: for IC50: ELISA, histone-coated plate, NAD+, 60 min at 25 °C; for Selectivity PARP2/PARP1: ratio of PARP2 IC50 to PARP1 IC50
Procedure: (§3) Experimental Objective: To evaluate the inhibitory effect of the compounds of the present invention on the enzyme activities of PARP1 and PARP2 using ELISA.
(§4) • 1. histone-coated 384-well plates was prepared: 25 µL of histone solution was added to each well and incubated overnight at 4 °C. • 2. PBST buffer, blocking buffer (PBS buffer with 5% BSA and 0.05% Tween-20 added) and detection buffer (20 mM HEPES pH 7.5 + 100 mM NaCl + 2 mM DTT + 0.002% Tween-20 + 0.1% BSA) were prepared. • 3. The histone-coated 3 84-well plate was washed three times with PBST buffer, blocked at room temperature with 50 µL blocking buffer for 1 hour, and then washed three times with PBST buffer. • 4. Test compounds were prepared as 2000-fold stock solutions in DMSO. 50 nL of the stock solution was mixed with 19.95 µL detection buffer, and 5 µL of the gradient-diluted test compound was transferred to each well. • 5. Enzymatic reaction (PARP1): PARP1 & DNA mix was pre-incubated at 25 °C for 10 minutes. 10 µL of the PARP1 & DNA mix was added to each well and incubated with the test compound at room temperature for 10 minutes. […] Finally, the 384-well plate was washed three times with PBST buffer. Enzymatic reaction (PARP2): PARP2 was pre-incubated at 25 °C for 10 minutes. 10 µL of PARP2 was added to each well and incubated with the test compound at room temperature for 10 minutes. […] Finally, the 384-well plate was washed three times with PBST buffer. • 6. Detection (PARP1): 20 µL of anti-Poly/Mono-ADP Ribose Rabbit mAb was added and incubated at room temperature for 1.5 hours, followed by three washes of the 384-well plate with PBST buffer. Then, 20 µL of diluted anti-rabbit IgG, HRP-linked Antibody (diluted 1:2000 in blocking buffer) was added and incubated at room temperature for 1 hour. After washing the plate three times with PBST buffer, 25 µL of a 1:1 mixture of Femto-ECL Substrate A and Femto-ECL Substrate B was added. Detection (PARP2): 25 µL of Strep-HRP was added and incubated at room temperature for 1 hour, followed by three washes of the 384-well plate with PBS buffer. Then, 25 µL of a 1:1 mixture of Femto-ECL Substrate A and Femto-ECL Substrate B was added. • 7. Chemiluminescence intensity was measured using an Envision multimode microplate reader. • 8. Data Processing
(§5) The inhibition rate was calculated in Excel using formula (1). inh% = (Max−Signal)/(Max−Min)*100 [formula]
(§6) The IC50 value was obtained by fitting the data in XL-Fit using formula (2). Y = bottom + (top−bottom)/(1+(IC50/X)*HillSlope); [formula] wherein Y is the inhibition percentage and X is the compound concentration.

DLD-1 BRCA2(-/-) cells = test: Inhibition of proliferation of DLD-1 BRCA2(-/-) cells (CTG method); format: cell-based; conditions: Homo sapiens, DLD-1, 168 h; 7 days incubation, CellTiter-Glo
How it was run: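 DLD-1 BRCA2(-/-) cells, 1,000 per well, attached overnight, then exposed to compound at final 10000 to 0.152 nM (4-fold series) in triplicate for 7 days at 37 °C, 5% CO2. Viability by CellTiter-Glo luminescence; IC50 for proliferation inhibition from a fitted curve.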

MDA-MB-436 cells = test: Inhibition of proliferation of MDA-MB-436 cells (CellTiter-Glo); format: cell-based; conditions: Homo sapiens, MDA-MB-436, 168 h, 7 days incubation
Procedure: • 1. Cell Pretreatment: MDA-MB-436 cells were cultured in DMEM + 10% FBS + 1% penicillin-dip antibiotics + 1% ITS + 16 µg/ml glutathione. Cells in the logarithmic growth phase were digested with trypsin-EDTA, centrifuged and resuspended, and then seeded at a rate of 500-1000 cells/well in sterile 96-well opaque plates, 90 µl per well. After seeding, the cell culture plates were incubated overnight at 37°C with 5% CO2 before drug treatment. • 2. Drug treatment of MDA-MB-436 cells: The test compound was prepared as a 10 mM stock solution using DMSO. The drug was then diluted to a 10× working solution using growth medium (the compound was started at 100 µM and diluted 4-fold to achieve 9 concentrations). 10 µl of the 10× working solution was added to each well to achieve final drug concentrations of 10000, 2500, 625, 156, 39, 9.7, 2.4, 0.61, and 0.152 nM, respectively. Blank control wells containing the same DMSO concentration were also included, with three replicates for each concentration. After drug addition, the cells were incubated at 37°C with 5% CO2 for 7 days. • 3. After incubation, 100 µl of CellTiter-Glo® Reagent was added to each well, and luminescence was measured. The IC50 value of cell proliferation inhibition was calculated using GraphPad software to fit the curve. Table E: Results of the inhibitory effect of the compound of this invention on the proliferation of MDA-MB-436 cells.

PARP2 = PARP2 (Homo sapiens, UniProt Q9UGN5); test: biochemical;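 further: PARP2 enzyme ELISA on histone-coated plates, Strep-HRP detection with chemiluminescence read-out, 10 min compound preincubation with enzyme, inhibition scaled between Max and Min signal controls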
Sequence of PARP2 (Q9UGN5 whole entry): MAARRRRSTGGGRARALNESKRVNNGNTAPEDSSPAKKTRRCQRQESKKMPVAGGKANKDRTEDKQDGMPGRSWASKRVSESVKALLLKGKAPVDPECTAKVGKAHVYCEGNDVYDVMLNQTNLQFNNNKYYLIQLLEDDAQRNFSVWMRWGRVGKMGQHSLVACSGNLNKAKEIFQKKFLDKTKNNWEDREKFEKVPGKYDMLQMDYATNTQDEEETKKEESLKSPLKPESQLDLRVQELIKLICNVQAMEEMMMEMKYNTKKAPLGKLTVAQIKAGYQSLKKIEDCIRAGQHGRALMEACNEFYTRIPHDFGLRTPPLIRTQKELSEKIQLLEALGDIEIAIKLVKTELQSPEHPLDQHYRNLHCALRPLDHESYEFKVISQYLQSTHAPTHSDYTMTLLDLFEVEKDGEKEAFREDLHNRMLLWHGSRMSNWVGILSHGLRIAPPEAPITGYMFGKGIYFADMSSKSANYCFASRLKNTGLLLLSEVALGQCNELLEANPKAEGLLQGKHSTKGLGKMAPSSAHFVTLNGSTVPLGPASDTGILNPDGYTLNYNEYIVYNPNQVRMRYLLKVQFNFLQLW
Procedure: as §3, §4, §5, §6

Sequence of PARP1 (P09874 whole entry): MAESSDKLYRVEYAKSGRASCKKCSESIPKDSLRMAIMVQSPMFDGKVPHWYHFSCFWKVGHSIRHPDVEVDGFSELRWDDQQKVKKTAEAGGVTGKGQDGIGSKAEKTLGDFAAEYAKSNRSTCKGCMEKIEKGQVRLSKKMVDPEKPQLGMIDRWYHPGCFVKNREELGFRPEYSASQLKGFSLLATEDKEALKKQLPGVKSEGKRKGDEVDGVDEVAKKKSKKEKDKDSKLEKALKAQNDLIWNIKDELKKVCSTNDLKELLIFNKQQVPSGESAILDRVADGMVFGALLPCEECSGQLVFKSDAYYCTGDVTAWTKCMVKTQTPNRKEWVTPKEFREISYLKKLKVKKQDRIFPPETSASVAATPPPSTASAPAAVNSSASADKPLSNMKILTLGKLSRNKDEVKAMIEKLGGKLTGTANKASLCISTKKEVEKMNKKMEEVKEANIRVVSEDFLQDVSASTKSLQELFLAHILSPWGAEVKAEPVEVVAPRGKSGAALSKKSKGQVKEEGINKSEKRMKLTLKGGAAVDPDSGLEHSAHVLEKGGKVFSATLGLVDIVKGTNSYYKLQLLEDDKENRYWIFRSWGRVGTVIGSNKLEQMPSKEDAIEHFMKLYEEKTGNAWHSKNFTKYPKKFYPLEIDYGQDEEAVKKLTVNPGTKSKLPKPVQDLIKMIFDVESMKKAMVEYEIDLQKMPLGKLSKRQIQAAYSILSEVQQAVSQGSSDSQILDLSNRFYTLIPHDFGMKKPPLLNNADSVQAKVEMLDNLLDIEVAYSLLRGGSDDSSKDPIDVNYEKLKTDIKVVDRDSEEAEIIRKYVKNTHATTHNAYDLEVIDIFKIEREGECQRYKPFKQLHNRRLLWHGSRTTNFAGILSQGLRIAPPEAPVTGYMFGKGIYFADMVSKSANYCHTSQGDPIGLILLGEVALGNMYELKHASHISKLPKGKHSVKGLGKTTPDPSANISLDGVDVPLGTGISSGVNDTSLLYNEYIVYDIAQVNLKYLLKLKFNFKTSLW

AUC(0-t) ([1]; iv, 1 mg/kg) [ng·h/mL] | Cmax ([1]; iv, 1 mg/kg) [ng/mL] | half-life ([1]; iv, 1 mg/kg) [h] | AUC(0-t) ([1]; po, 5 mg/kg) [ng·h/mL] | Cmax ([1]; po, 5 mg/kg) [ng/mL] | half-life ([1]; po, 5 mg/kg) [h] | AUC(0-t) ([2]; iv, 2 mg/kg) [ng·h/mL] | Cmax ([2]; iv, 2 mg/kg) [ng/mL] | half-life ([2]; iv, 2 mg/kg) [h] | AUC(0-t) ([2]; po, 5 mg/kg) [ng·h/mL] | Cmax ([2]; po, 5 mg/kg) [ng/mL] | half-life ([2]; po, 5 mg/kg) [h] | IC50 (PARP1) [nM] | Selectivity PARP2/PARP1 (PARP1) | IC50 (DLD-1 BRCA2(-/-) cells) [nM] | IC50 (MDA-MB-436 cells) [nM] | IC50 (PARP2) [nM] | SMILES
1090 | 534 | 2.1 | 5610 | 719 | 3.4 | 2870 | 942 | 3.1 | 8560 | 1450 | 3.9 | 1.5 | 2084.7 | 22.9 | 20.2 | 3130 | CNC(=O)c1ccc(N2CCN(Cc3cc(-c4ccccc4)c4nc(C)c(=O)[nH]c4c3)CC2)c(F)n1 [Example 2, 6-fluoro-N-methyl-5-(4-((2-methyl-3-oxo-8-phenyl-3,4-dihydroquinoxalin-6-yl)methyl)piperazin-1-yl)picolinamide]
1990 | 653 | 3.4 | 13100 | 1400 | 3.7 | 2140 | 1220 | 1.9 | 4890 | 1780 | 2.4 | 2.67 | 53.2 | 4.6 | 7.5 | 142 | CNC(=O)c1ccc(N2CCN(Cc3cc(OC(C)C)c4nc(C)c(=O)[nH]c4c3)CC2)c(F)n1 [Example 3, 6-fluoro-5-(4-((8-isopropoxy-2-methyl-3-oxo-3,4-dihydroquinoxalin-6-yl)methyl)piperazin-1-yl)-N-methylpicolinamide]
3370 | 1170 | 3.4 | 22400 | 2600 | 3.3 | 2140 | 1300 | 1.6 | 6370 | 3230 | 1.8 | 1.3 | 362.1 | 2.5 | 10.7 | 472 | CC#Cc1cc(CN2CCN(c3ccc(C(=O)NC)nc3F)CC2)cc2[nH]c(=O)c(C)nc12 [Example 7, 6-fluoro-N-methyl-5-(4-((2-methyl-3-oxo-8-(prop-1-yn-1-yl)-3,4-dihydroquinoxalin-6-yl)methyl)piperazin-1-yl)picolinamide]
7720 | 2730 | 3.2 | 57900 | 5810 | 4.4 | 17000 | 6560 | 1.9 | 33900 | 11500 | 2.9 | 0.713 | 256.6 | 1.3 | 3.5 | 183 | CNC(=O)c1ccc(N2CCN(Cc3cc(OC(F)F)c4nc(C)c(=O)[nH]c4c3)CC2)c(F)n1 [Example 13, 5-(4-((8-(difluoromethoxy)-2-methyl-3-oxo-3,4-dihydroquinoxalin-6-yl)methyl)piperazin-1-yl)-6-fluoro-N-methylpicolinamide]
5680 | 2230 | 2.4 | 48300 | 4970 | 2.8 | 2750 | 3750 | 1.2 | 4860 | 2760 | 1.5 | 2 | 44.3 | 13 | 0.2 | 90.2 | CC#Cc1cc(CN2CCN(c3ccc(C(=O)NC4CC4)nc3F)CC2)cc2[nH]c(=O)c(C)nc12 [Example 35, N-cyclopropyl-6-fluoro-5-(4-((2-methyl-3-oxo-8-(prop-1-yn-1-yl)-3,4-dihydroquinoxalin-6-yl)methyl)piperazin-1-yl)picolinamide]
– | – | – | – | – | – | 18100 | 8180 | 2.5 | 61500 | 15100 | 2.5 | 0.9 | 239.7 | 7 | 0.3 | 221 | Cc1nc2c(OC(F)F)cc(CN3CC=C(c4ccc(C(=O)NC5CC5)nc4F)CC3)cc2[nH]c1=O [Example 42, N-cyclopropyl-1'-((8-(difluoromethoxy)-2-methyl-3-oxo-3,4-dihydroquinoxalin-6-yl)methyl)-2-fluoro-1',2',3',6'-tetrahydro-[3,4'-bipyridine]-6-carboxamide]
3520 | 1190 | 3.5 | 31100 | 2580 | 3.8 | 17800 | 7220 | 2.5 | 67100 | 10700 | 2.8 | – | – | 2.2 | 1.4 | – | CNC(=O)c1ccc(N2CCN(Cc3cc(OC(F)F)c4nc(C)c(=O)[nH]c4c3)CC2)c(C)n1 [Example 52, 5-(4-((8-(difluoromethoxy)-2-methyl-3-oxo-3,4-dihydroquinoxalin-6-yl)methyl)piperazin-1-yl)-N,6-dimethylpicolinamide]
– | – | – | – | – | – | – | – | – | – | – | – | 1.3 | 756.9 | 9.1 | 12 | 992 | CNC(=O)c1ccc(N2CCN(Cc3cc(OC4CCCCC4)c4nc(C)c(=O)[nH]c4c3)CC2)c(F)n1 [Example 72, 5-(4-((8-(cyclohexyloxy)-2-methyl-3-oxo-3,4-dihydroquinoxalin-6-yl)methyl)piperazin-1-yl)-6-fluoro-N-methylpyridine amide]

SMILES | AUC(0-t) ([1]; iv, 1 mg/kg) [ng·h/mL] | Cmax ([1]; iv, 1 mg/kg) [ng/mL] | half-life ([1]; iv, 1 mg/kg) [h] | AUC(0-t) ([1]; po, 5 mg/kg) [ng·h/mL] | Cmax ([1]; po, 5 mg/kg) [ng/mL] | half-life ([1]; po, 5 mg/kg) [h] | AUC(0-t) ([2]; iv, 2 mg/kg) [ng·h/mL] | Cmax ([2]; iv, 2 mg/kg) [ng/mL] | half-life ([2]; iv, 2 mg/kg) [h] | AUC(0-t) ([2]; po, 5 mg/kg) [ng·h/mL] | Cmax ([2]; po, 5 mg/kg) [ng/mL] | half-life ([2]; po, 5 mg/kg) [h] | IC50 (PARP1) [nM] | Selectivity PARP2/PARP1 (PARP1) | IC50 (DLD-1 BRCA2(-/-) cells) [nM] | IC50 (MDA-MB-436 cells) [nM] | IC50 (PARP2) [nM]
CNC(=O)c1ccc(C2=CCN(Cc3cc(OC(F)F)c4nc(C)c(=O)[nH]c4c3)CC2)c(F)n1 [Example 15, 1'-((8-(difluoromethoxy)-2-methyl-3-oxo-3,4-dihydroquinoxalin-6-yl)methyl)-2-fluoro-N-methyl-1',2',3',6'-tetrahydro-[3,4'-bipyridine]-6-carboxamide] | 6060 | 1560 | 4.1 | 31600 | 3630 | 4.5 | 75300 | 13600 | 3.8 | 189000 | 19000 | 4.2 | 0.6 | 248.4 | 4.1 | 1.3 | 137
CNC(=O)c1ccc(N2CCN(Cc3cc(OC4CCCC4)c4nc(C)c(=O)[nH]c4c3)CC2)c(F)n1 [Example 71, 5-(4-((8-(cyclopentoxy)-2-methyl-3-oxo-3,4-dihydroquinoxalin-6-yl)methyl)piperazin-1-yl)-6-fluoro-N-methylpyridine amide] | – | – | – | – | – | – | – | – | – | – | – | – | 1.5 | 873.7 | 12.3 | 9.3 | 1290

Reference: patent EP4755880A1, “SUBSTITUTED NITROGEN-CONTAINING BICYCLIC COMPOUND AND USE THEREOF” (Sunshine Lake Pharma Co., Ltd., priority 2023, dated 2025)
